Results taken from patent US5502068A, “Cyclopropylpyrroloindole-oligopeptide anticancer agents” (Synphar Laboratories, Inc., priority 1995, dated 1996).
In brackets after ≈: the same amount, converted by molar mass. Entries after “also recorded” stand apart in the source; their conditions may differ. Like-named read-outs stand apart in the source and are kept apart here.

Experiments:
[1] = tested on: P388 lymphocytic leukemia cells; assay: Antitumor efficacy, i.p. P388 lymphocytic leukemia in CDF1 mice; format: in vivo, mouse; conditions: 0.3 mg/kg ip
Method: All compounds were dissolved in dimethyl sulfoxide (DMSO), diluted in sterile 0.9% NaCl solution to 5% final DMSO concentration. BALB/c X DBA/2F1 (CDF1) mice were purchased from Japan CLEA. P388 lymphocytic leukemia cells were inoculated intraperitoneally (10^6 cells) 1 day prior to treatment into 6 week-old male CDF1 mice, and compounds were injected intraperitoneally in a total volume of 0.1 ml/10g mouse body weight. Efficacy for these models was expressed as the Increase in life span (ILS) of treated mice in comparison to untreated tumor-bearing mice. Experiment was completed on day 30 after tumor inoculation, and survivor on that day was evaluated as cured animal. Time to death (mean±SD.n=9) for untreated animals was 11.5±1.2 day and for solvent treated animals was 11.7±2.1 day.

[2] = tested on: KB human nasopharyngeal carcinoma cells; assay: Cytotoxicity (antiproliferative effect), crystal violet staining; format: cell-based; conditions: for IC50: Homo sapiens, KB, 72 h
Method: KB human nasopharyngeal carcinoma cells, were maintained in RPMI 1640 medium supplemented with 10% fetal bovine serum. KB cells were cultured in plastic tissue culture flasks and kept in an incubator at 37° C. in humidified air containing 5% CO2. These cells were free of Mycoplasma as determined with Hoechst 33258 stain.
The antiproliferative effect of compounds was determined using cell staining method by crystal violet.
One hundred-μ1 cultures were established at 10^3 cells/well in 96-well tissue culture plates (Nunc, Roskilde, Denmark). After 24 h. 100 µl of the medium containing 2 times concentrated the compounds were added to the cell culture. After an additional 3 days culture, cells were fixed to 20 µl of 25% glutaraldehyde for 15 minutes and washed with water, dried and stained with 0.05% crystal violet in 20% methanol for 15 minutes. After washing with water and drying, crystal violet was extracted with 100 µl of 50 mM NaH2 PO4 /ethanol (1:1 v/v) and OD540 was measured by the multiscanphotometer (Corona, Tokyo, Japan). A linear relationship between cell number and the amount of dye binding was found over the range of cell densities observed all experiments.

DNA = assay: Site and sequence selective DNA alkylation by polyacrylamide gel electrophoresis (PAGE); format: biochemical
Description: In contrast to FCE 24517, clear evidence of site and sequence selective DNA alkylation was obtained for the new CPI-oligopeptides by polyacrylamide gel electrophoresis (PAGE). […] Table 5 quantifies and compares the alkylation intensities at different sites for the CPI-oligopeptides with CC-1065. […] A detailed analysis of the frequency of occurrence of bases flanking the prominent alkylation sites for YW-052 and YW-053 compared with CC-1065 is given in Table 7.

herpes viruses = conditions: cited from earlier work
[3] = in words; cited from earlier work
[4] = Table 3, KB cells, 3 days, read-out: KB cells, toxicity TD50

## CCCC(=O)Nc1cc(C(=O)N2CC3CC34C2=CC(=O)c2[nH]cc(C)c24)n(C)c1 (centres unmarked) [YW-036]
[1]; maximum ILS, P388 ip, 30 day survivors not included
  In vivo ILS P388 (ip): 24.6%
[1]; survivors on day 30 evaluated as cured
  cure: 1/7
[2]; Table 4, KB cell, read-out: Cytotoxicity IC50 (KB cell)
  IC50: 0.47 ng/mL (≈ 1.2 nM)

## CCCC(=O)Nc1cc(C(=O)Nc2cc(C=CC(=O)N3CC4CC45C3=CC(=O)c3[nH]cc(C)c35)n(C)c2)n(C)c1 (centres unmarked) [YW-053]
DNA; A, position +1
  Frequency of Occurrence, base A at +1: 27%
DNA; A, position +2
  Frequency of Occurrence, base A at +2: 27%
DNA; A, position +3
  Frequency of Occurrence, base A at +3: 27%
DNA; A, position -1
  Frequency of Occurrence, base A at -1: 36%
DNA; A, position -2
  Frequency of Occurrence, base A at -2: 45%
DNA; A, position -3
  Frequency of Occurrence, base A at -3: 36%
DNA; A/T, position +1
  Frequency of Occurrence, A/T at +1: 82%
DNA; A/T, position +2
  Frequency of Occurrence, A/T at +2: 54%
DNA; A/T, position +3
  Frequency of Occurrence, A/T at +3: 54%
DNA; A/T, position -1
  Frequency of Occurrence, A/T at -1: 100%
DNA; A/T, position -2
  Frequency of Occurrence, A/T at -2: 100%
DNA; A/T, position -3
  Frequency of Occurrence, A/T at -3: 63%
DNA; C, position +2
  Frequency of Occurrence, base C at +2: 9%
DNA; C, position +3
  Frequency of Occurrence, base C at +3: 9%
DNA; C, position -3
  Frequency of Occurrence, base C at -3: 10%
DNA; G, position +1
  Frequency of Occurrence, base G at +1: 28%
DNA; G, position +2
  Frequency of Occurrence, base G at +2: 37%
DNA; G, position +3
  Frequency of Occurrence, base G at +3: 37%
DNA; G, position -3
  Frequency of Occurrence, base G at -3: 27%
DNA; T, position +1
  Frequency of Occurrence, base T at +1: 45%
DNA; T, position +2
  Frequency of Occurrence, base T at +2: 27%
DNA; T, position +3
  Frequency of Occurrence, base T at +3: 27%
DNA; T, position -1
  Frequency of Occurrence, base T at -1: 64%
DNA; T, position -2
  Frequency of Occurrence, base T at -2: 55%
DNA; T, position -3
  Frequency of Occurrence, base T at -3: 27%
DNA; alkylated base A*
  Frequency of Occurrence, A* (site of alkylation): 91%
DNA; alkylated base G*
  Frequency of Occurrence, G* (site of alkylation): 9%
DNA; moderate sites, listed as YW-53
  Alkylation Sites (5'-3'), Moderate: TTAA, AATG, GATA; also recorded: ATAA, CTTA, GAAA
DNA; strong sites, listed as YW-53
  Alkylation Sites (5'-3'), Strong: TTTA, TATA, GTTA; also recorded: AATA, ATAA

## CC(=O)Nc1cc(C=CC(=O)N2CC3CC34C2=CC(=O)c2[nH]cc(C)c24)n(C)c1 (centres unmarked) [YW-059]
[2]; Table 2, KB cells, 3 days, read-out: KB cells, toxicity TD50
  IC50: 0.00015 ng/mL (≈ 0.000384 nM)
[2]; human tumor KB cell line, in words
  cytotoxic potency / anticancer activity in vitro: exceeding in the case of YW-059, for example, that of any other reported natural or synthetic agents; also recorded: cytotoxic potency exceeds that of any other agent, natural or synthetic, reported to date

## Cc1c[nH]c2c1C13CC1CN(C(=O)c1cc(NC(=O)CCN(C)C)cn1C)C3=CC2=O (centres unmarked) [YW-60]
[2]; [4]
  IC50: 184 ng/mL (≈ 437 nM)

## Cc1c[nH]c2c1C13CC1CN(C(=O)c1cc(NC(=O)c4cc(NC(=O)CCN(C)C)cn4C)cn1C)C3=CC2=O (centres unmarked) [YW-61]
[2]; [4]
  IC50: 2490 ng/mL (≈ 4580 nM)

## Cc1c[nH]c2c1C13CC1CN(C(=O)c1cc(NC(=O)c4cc(NC(=O)c5cc(NC(=O)CCN(C)C)cn5C)cn4C)cn1C)C3=CC2=O (centres unmarked) [YW-62]
[2]; [4]
  IC50: 1370 ng/mL (≈ 2060 nM)

## Cc1c[nH]c2c1C13CC1CN(C(=O)c1nc(NC(=O)CCN(C)C)cn1C)C3=CC2=O (centres unmarked) [YW-63]
[2]; [4]
  IC50: 385 ng/mL (≈ 911 nM)

## Cc1c[nH]c2c1C13CC1CN(C(=O)c1nc(NC(=O)c4nc(NC(=O)CCN(C)C)cn4C)cn1C)C3=CC2=O (centres unmarked) [YW-64]
[2]; [4]
  IC50: 2520 ng/mL (≈ 4620 nM)

## Cn1cc(NC(=O)c2cc(NC(=O)c3cc(NC=O)cn3C)cn2C)cc1C(=O)NCCC(=N)N [distamycin]
Herpes viruses
  therapeutic index: about 3
[3]
  cytotoxicity: high cytotoxicity
